Laboratory results reported in US20080199520A1, “S-Adenosyl-L-Methionine for Regulating Behavioral Disorders in Pets” (VIRBAC, priority 2005, published 2008).
Where two headings read alike, the source gives them in different places.

Legend:
[1] = test system: old dogs presenting behavioral disorders associated with CDS; assay: Study of SAMe in old dogs presenting behavioral disorders associated with CDS (Example 1); type: in vivo; conditions: for dogs showing an improvement in activity level (owners) / mean activity level of the animals as observed by a veterinarian: at least 2.5 mg SAMe per kg per day
Protocol: A study was conducted to show the efficacy of S-adenosyl-L-methionine in old dogs presenting behavioral disorders associated with CDS.
S-adenosyl-L-methionine was administered in the form of tablets containing 10, 50 or 100 mg of SAMe.
15 dogs more than 7 years old were selected with no restrictions on breed, sex or weight. All the dogs presented well-established cognitive disorders associated with CDS (cleanliness problems, disorders of activity-sleep cycle, decrease in activity) which had been observed by their owners and by veterinarians.
Dogs presenting diseases requiring medical treatment were excluded from the study, as were dogs which had been treated with psychotropic drugs in the month preceding the study. Also, to avoid biases in the observations, heart, kidney and liver treatments and psychoactive drugs were not permitted during the study.
During the study the dogs received at least the equivalent of 2.5 mg of SAMe per kg of body weight per day in a single daily administration over a period of 4 months.
The dogs were examined by a veterinarian at the start of the experiment and then every month. The blood parameters were analyzed at each veterinary examination.
Experiment number 1: Measurement of the activity level of the dogs.
Experiment number 2: Measurement of the effect on the sleeping time of the dogs.
Experiment number 3: Evaluation of the effect on the anxiety of the dogs.

[2] = test system: dogs presenting signs of fear; assay: Effect of the nutritional supplement on behavior and physical signs associated with fear in dogs (Example 2); type: in vivo; conditions: 7.5 mg SAMe/kg/day oral for one month, then 2.5 mg/kg/day for two months; sum of 6 parameter scores (FIG. 4)
Protocol: Another study was conducted to show the effect of administering to dogs a nutritional supplement based on S-adenosyl-L-methionine on the behavior and physical signs associated with fear.
The nutritional supplement used in this test consisted of tablets containing 10, 50 or 100 mg of SAMe. It was administered to the animals at a loading dose of 7.5 mg of SAMe per kg of body weight per day in a single daily oral administration for one month, and then at a maintenance dose of 2.5 mg of SAMe per kg of body weight per day in a single daily oral administration for the next two months.
15 dogs aged between 6 months and 15 years are selected with no restrictions on breed, sex or weight. In the two months preceding inclusion in the study, all the dogs presented signs of fear associated either with inhibited behavior or, conversely, with exaggerated responses. This type of problem had to have been identified in the dog for more than two months. The “overall fear score” (sum of the individual scores for the various parameters monitored) recorded at the start of the experiment had to be greater than 7, the parameters observed being as follows: • Pupil dilation. Score: 0=normal, 1=increased, 2=complete. • Trembling. Score: 0=none, 1=slight, 2=pronounced. • Exploration. […]

[3] = test system: old dogs with behavioral disorders; assay: Randomized double-blind placebo-controlled study on reduced mental capacity of old dogs (Example 4); type: in vivo
Protocol: These behavioral disorders manifested themselves as follows: disorientation, decrease in activity, decrease in social interactions, changes in activity-sleep cycle, lack of cleanliness, anxiety.
The dogs were randomly assigned to one of two treatment groups: SAMe or placebo. […]
The dogs were examined by an investigator at the start of the experiment and then at 30 days and 60 days.
The examinations looked at the various behavioral disorders of the animals, which were evaluated on a scale of 0 to 3 according to their intensity, and all the scores were added together to give a “standardized geriatric behavior score” reflecting the severity of the problems observed.

[4] = test system: old cats with cognitive disorders
Protocol: A study was conducted to show the effects of S-adenosyl-L-methionine on age-related behavioral disorders in cats.
SAMe was administered in the form of tablets containing 90 mg of an S-adenosyl-L-methionine salt (the 1,4-butanedisulfonate).
The tablets were given once a day for a period of 3 consecutive months to comply with the following doses: • Mean dose: 18 (±3.4) mg/kg/d; minimum dose: 12.9 mg/kg/d; maximum dose: 22.5 mg/kg/d.
The blood parameters were analyzed by the veterinarian every month. The owners were also asked to give their opinion on the changes observed in the behavior of their pets.

[5] = after two months of treatment, tosylate salt, 18.5 mg/kg/d
[6] = response to the treatment at D60, n = 17, tosylate salt, 18.5 mg/kg/d
[7] = 3 months, 1,4-butanedisulfonate salt, mean 18 mg/kg/d (FIG. 6)

Structure (SMILES): C[S@@+](CC[C@H](N)C(=O)O)C[C@H]1O[C@@H](n2cnc3c(N)ncnc32)[C@H](O)[C@@H]1O [SAMe, 5′-[[3S-amino-3-carboxypropyl]methyl-(S)-sulfonio]-5′-deoxyadenosine]
- dogs showing an improvement in activity level (owners) ([1]; after one month): more than 70%
- mean activity level of the animals as observed by a veterinarian ([1]; after one month, tablets, single daily administration, score -1 reduced, 0 unchanged, 1 increased (FIG. 1)): increased significantly
- mean activity level of the animals as observed by a veterinarian ([1]; after the first month, up to 4 months): remained above the animals' normal activity
- sleeping time of the animals ([1]; daily for 4 months, variations decreased considerably after two months (FIG. 2)): tended to normalize
- efficacy as considered by the owners ([1]; end of the study (4 months)): very good
- dogs showing an improvement in activity level (owners) ([1]; first two weeks of the treatment): 38%
- anxiety of the animals ([1]; throughout the 4-month period, score 0 none to 3 permanent (FIG. 3)): decreased regularly
- overall fear score [2]: decreases very substantially
- average improvement in terms of activity [3, 5]: 57.1%
- average improvement in terms of learning behavior, more particularly cleanliness [3, 5]: 57.1%
- average improvement in terms of reactivity [3, 5]: 59.5%
- owners' impression of their animals under treatment ([3]; end of the study, majority of the owners): more active and reactive
- % of dogs, Good response [3, 6]: 41.2%
- % of dogs, No response [3, 6]: 35.3%
- % of dogs, Poor response [3, 6]: 23.5%
- No. of dogs, Good response [3, 6]: 7
- No. of dogs, No response [3, 6]: 6
- No. of dogs, Poor response [3, 6]: 4
- reduction of the standardized geriatric behavior score ([3]; tosylate salt tablets once a day, average 18.5 mg/kg/d, versus placebo over the study period (FIG. 11)): more significant with SAMe than with placebo
- cases with improved elimination behavior [4, 7]: 40%
- cats with improved elimination behavior (number) [4, 7]: 2 out of 5
- cats exhibiting ambulation or vocalization periods ([4]; 15 days after the start of the experiment (70% at the start)): 30%
- play activity of the cats ([4]; after one month (FIG. 8)): promising net effect
- exploratory behavior of the cats ([4]; as from 15 days of treatment (FIG. 7)): perceptible activating effect
- cats exhibiting ambulation or vocalization periods ([4]; as from the second month (70% at the start)): no cat
- cats with a positive result on play activity ([4]; at 2 months (FIG. 8)): 7 out of 10
- interactions/recognition (owners, other animals) ([4]; cats which initially presented an interaction deficit (FIG. 9)): responded rather well
- interactions/recognition (owners, other animals) ([4]; cats which manifested hyperattachment (FIG. 9)): more variable
- periods of waking with a start or nightmares ([4]; during the 3-month study, 1,4-butanedisulfonate salt, mean 18 mg/kg/d): No cat
- efficacy as considered by the owners ([4]; end of the study (3 months)): very good
- cats with a return to a normal day-night cycle ([4]; in one month, 1,4-butanedisulfonate salt tablets, mean dose 18 mg/kg/d once a day (FIG. 5)): 7 out of 10
- cats in which aggressiveness or irritability was eliminated (number) ([4]; in three months (FIG. 10)): 4 out of 5
- manifestations of aggressiveness or irritability eliminated ([4]; in three months, encountered in 50% of the cats (FIG. 10)): 80%
- side effects ([4]; in vivo): without causing side effects
